Results reported in ChEMBL document CHEMBL1201862, “PubChem BioAssay data set” (2004).
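Following 48 hours of exposure in 96-well plates, responses at five concentrations were used to interpolate endpoints linearly. GI50 is the concentration that inhibits growth by half.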 The source made the active and inactive calls. No stated cut-off is given here; in the data, active = GI50 up to about 1.1 µM and inactive = higher.

Legend:
Test in all cases: NCI anticancer screen, dose series, 48 h
SK-OV-3 = test system: SK-OV-3
HOP-92 = test system: HOP-92
DU-145 = test system: DU-145
COLO 205 = test system: COLO 205
RPMI-8226 = test system: RPMI-8226
M14 = test system: M14
NCI-H460 = test system: NCI-H460
MDA-MB-435 = test system: MDA-MB-435
A549 = test system: A549
UACC-257 = test system: UACC-257
UO-31 = test system: UO-31
TK-10 = test system: TK-10
SNB-19 = test system: SNB-19
MDA-MB-231 = test system: MDA-MB-231
MOLT-4 = test system: MOLT-4
NCI-H522 = test system: NCI-H522
K562 = test system: K562
HL-60 = test system: HL-60

SMILES | GI50 (SK-OV-3) | GI50 (HOP-92) | GI50 (DU-145) | GI50 (COLO 205) | GI50 (RPMI-8226) | GI50 (M14) | GI50 (NCI-H460) | GI50 (MDA-MB-435) | GI50 (A549) | GI50 (UACC-257) | GI50 (UO-31) | GI50 (TK-10) | GI50 (SNB-19) | GI50 (MDA-MB-231) | GI50 (MOLT-4) | GI50 (NCI-H522) | GI50 (K562) | GI50 (HL-60)
O=C(CCCCCCCCC(=O)N1C(=O)CC(=O)N(c2cccc(Cl)c2)C1=S)N1C(=O)CC(=O)N(c2cccc(Cl)c2)C1=S | 42.6 µM (inactive) | 20.5 µM (inactive) | 89.7 µM (inactive) | 37.3 µM (inactive) | 27.2 µM (inactive) | 38.9 µM (inactive) | 45.9 µM (inactive) | 59.8 µM (inactive) | 32.5 µM (inactive) | 45 µM (inactive) | 27.5 µM (inactive) | 56.9 µM (inactive) | 33.7 µM (inactive) | 24.6 µM (inactive) | 20 µM (inactive) | 16.3 µM (inactive) | – | –
O=C1c2ccccc2C(C2c3ccccc3C(=O)c3cc(Br)ccc32)c2ccc(Br)cc21 (stereo unspecified) | > 100 µM (inactive) | > 100 µM (inactive) | > 100 µM (inactive) | > 100 µM (inactive) | > 100 µM (inactive) | > 100 µM (inactive) | – | > 100 µM (inactive) | > 100 µM (inactive) | > 100 µM (inactive) | > 100 µM (inactive) | > 100 µM (inactive) | > 100 µM (inactive) | > 100 µM (inactive) | 61 µM (inactive) | > 100 µM (inactive) | 31.8 µM (inactive) | < 0.01 µM (active)
CC(C)(NC1=NCCO1)c1ccccc1 | > 100 µM (inactive) | > 100 µM (inactive) | > 100 µM (inactive) | > 100 µM (inactive) | > 100 µM (inactive) | > 100 µM (inactive) | > 100 µM (inactive) | > 100 µM (inactive) | > 100 µM (inactive) | > 100 µM (inactive) | > 100 µM (inactive) | > 100 µM (inactive) | 43.4 µM (inactive) | > 100 µM (inactive) | > 100 µM (inactive) | > 100 µM (inactive) | – | –
COc1cc2c(cc1OC)CN1CCCc3cc(OC)c(OC)cc3C1C2 (stereo unspecified) | 63.4 µM (inactive) | 21.4 µM (inactive) | 76 µM (inactive) | 40.9 µM (inactive) | – | 40.6 µM (inactive) | 31.4 µM (inactive) | 18.1 µM (inactive) | 55 µM (inactive) | 67.5 µM (inactive) | 43.1 µM (inactive) | 51.4 µM (inactive) | 36.9 µM (inactive) | 56.5 µM (inactive) | 88.1 µM (inactive) | 29.4 µM (inactive) | 48.3 µM (inactive) | –
COc1cc(/C=C/C(C)=O)ccc1OP(=O)(O)O | > 100 µM (inactive) | > 100 µM (inactive) | > 100 µM (inactive) | > 100 µM (inactive) | > 100 µM (inactive) | > 100 µM (inactive) | > 100 µM (inactive) | > 100 µM (inactive) | > 100 µM (inactive) | > 100 µM (inactive) | > 100 µM (inactive) | > 100 µM (inactive) | > 100 µM (inactive) | > 100 µM (inactive) | > 100 µM (inactive) | > 100 µM (inactive) | – | –
CC1=NN(c2cccc(Cl)c2)C2(C1=Cc1cccs1)C(Cl)C(=O)N2c1nc2ccccc2s1 (stereo unspecified) | – | 21.2 µM (inactive) | 33.8 µM (inactive) | – | 17.9 µM (inactive) | 34.8 µM (inactive) | 20 µM (inactive) | 30.4 µM (inactive) | 21.9 µM (inactive) | 23.2 µM (inactive) | 23.9 µM (inactive) | 28.6 µM (inactive) | – | 19.7 µM (inactive) | 22.3 µM (inactive) | 18.5 µM (inactive) | 25.7 µM (inactive) | 25.6 µM (inactive)
Cc1ccc(C2SC(=N)Nc3c2c(C)nn3C(=O)c2ccc(Cl)cc2)cc1 (stereo unspecified) | > 10 µM (inactive) | > 10 µM (inactive) | > 10 µM (inactive) | > 10 µM (inactive) | > 10 µM (inactive) | > 10 µM (inactive) | > 10 µM (inactive) | > 10 µM (inactive) | > 10 µM (inactive) | > 10 µM (inactive) | – | > 10 µM (inactive) | > 10 µM (inactive) | > 10 µM (inactive) | > 10 µM (inactive) | > 10 µM (inactive) | > 10 µM (inactive) | > 10 µM (inactive)
O=c1[nH]c(=O)n([C@@H]2O[C@H](CO)[C@@H](O)[C@@H]2F)cc1I [FIALURIDINE] | > 100 µM (inactive) | > 100 µM (inactive) | > 100 µM (inactive) | > 100 µM (inactive) | – | 77.6 µM (inactive) | 24 µM (inactive) | > 100 µM (inactive) | 44.2 µM (inactive) | > 100 µM (inactive) | > 100 µM (inactive) | > 100 µM (inactive) | > 100 µM (inactive) | > 100 µM (inactive) | 56 µM (inactive) | > 100 µM (inactive) | > 100 µM (inactive) | > 100 µM (inactive)
Cc1c(C(=O)N2CCN(c3ccc([N+](=O)[O-])cc3)CC2)[n+]([O-])c2cc(Cl)c(Cl)cc2[n+]1[O-] | 15.9 µM (inactive) | 15.2 µM (inactive) | 19.8 µM (inactive) | 26.4 µM (inactive) | 15.6 µM (inactive) | 27.1 µM (inactive) | 19.5 µM (inactive) | 35.7 µM (inactive) | 20.2 µM (inactive) | 35.6 µM (inactive) | – | 21.6 µM (inactive) | 18.3 µM (inactive) | 21.2 µM (inactive) | 72.8 µM (inactive) | 16.7 µM (inactive) | 26.5 µM (inactive) | 28.4 µM (inactive)
O=c1cc(CO)n(CCc2c[nH]c3ccccc23)cc1O | 48.4 µM (inactive) | 30.6 µM (inactive) | 28.2 µM (inactive) | 55 µM (inactive) | > 100 µM (inactive) | 47.1 µM (inactive) | 33.3 µM (inactive) | > 100 µM (inactive) | > 100 µM (inactive) | > 100 µM (inactive) | 49.1 µM (inactive) | > 100 µM (inactive) | 37.1 µM (inactive) | 31.3 µM (inactive) | 6.21 µM (inactive) | 24.7 µM (inactive) | – | –
C[C@@]1(O)C2CC3CC1(c1ccccc1)CC(/C3=N/O)/C2=N\O (stereo partly specified) | > 100 µM (inactive) | > 100 µM (inactive) | > 100 µM (inactive) | > 100 µM (inactive) | – | > 100 µM (inactive) | > 100 µM (inactive) | > 100 µM (inactive) | > 100 µM (inactive) | > 100 µM (inactive) | > 100 µM (inactive) | – | > 100 µM (inactive) | > 100 µM (inactive) | > 100 µM (inactive) | > 100 µM (inactive) | > 100 µM (inactive) | > 100 µM (inactive)
CCOc1cc(C(c2c(O)c3ccccc3oc2=O)c2c(O)c3ccccc3oc2=O)ccc1OC | 16.7 µM (inactive) | 16.5 µM (inactive) | 19.3 µM (inactive) | 20 µM (inactive) | 22.3 µM (inactive) | 19.1 µM (inactive) | – | 15.3 µM (inactive) | 38.6 µM (inactive) | 16.4 µM (inactive) | 22.8 µM (inactive) | 18 µM (inactive) | 23.8 µM (inactive) | 16 µM (inactive) | 35.9 µM (inactive) | 18.3 µM (inactive) | 33.4 µM (inactive) | 24.8 µM (inactive)
Cc1cc(=O)oc2cc(SC(=O)N(C)C)ccc12 | > 100 µM (inactive) | > 100 µM (inactive) | > 100 µM (inactive) | > 100 µM (inactive) | > 100 µM (inactive) | > 100 µM (inactive) | > 100 µM (inactive) | > 100 µM (inactive) | > 100 µM (inactive) | > 100 µM (inactive) | > 100 µM (inactive) | > 100 µM (inactive) | > 100 µM (inactive) | > 100 µM (inactive) | > 100 µM (inactive) | > 100 µM (inactive) | – | > 100 µM (inactive)
COC1/C=C/C(C)C(O)CC(O)/C=C/C(C)C(C(C)C(OC)C(C)CCC(=O)C(C)C(C/C=C/N(C)C=O)OC)OC(=O)/C=C/C=C(\C)CC(OC)CC2=CC(=O)O[C@@H](C(C)C(OC)C1)[C@H]2O (stereo partly specified) | < 0.005 µM (active) | 0.00612 µM (active) | 0.0221 µM (active) | 0.00513 µM (active) | 0.00783 µM (active) | < 0.005 µM (active) | < 0.005 µM (active) | 0.0105 µM (active) | 0.00507 µM (active) | 0.0103 µM (active) | 0.00769 µM (active) | 0.00542 µM (active) | 0.0168 µM (active) | < 0.005 µM (active) | 0.0163 µM (active) | < 0.005 µM (active) | – | < 0.005 µM (active)
O=C1CSC(=S)N1c1ccc(F)cc1F | > 100 µM (inactive) | 30.2 µM (inactive) | > 100 µM (inactive) | 46.2 µM (inactive) | 24.4 µM (inactive) | 40.9 µM (inactive) | 83.2 µM (inactive) | 35.6 µM (inactive) | 61.9 µM (inactive) | 43.8 µM (inactive) | 89.9 µM (inactive) | 94.4 µM (inactive) | 76.6 µM (inactive) | > 100 µM (inactive) | – | 18 µM (inactive) | – | –
N#Cc1ccc(N2CCOCC2)cc1 | > 100 µM (inactive) | > 100 µM (inactive) | > 100 µM (inactive) | > 100 µM (inactive) | – | > 100 µM (inactive) | > 100 µM (inactive) | > 100 µM (inactive) | > 100 µM (inactive) | > 100 µM (inactive) | > 100 µM (inactive) | > 100 µM (inactive) | > 100 µM (inactive) | > 100 µM (inactive) | > 100 µM (inactive) | 34.2 µM (inactive) | – | > 100 µM (inactive)
